Consider 23 compounds from patent publication US20240226343A1, “NEUROPEPTIDE Y1 RECEPTOR (NPY1R) TARGETED THERAPEUTICS AND USES THEREOF” (RADIONETICS ONCOLOGY, INC., priority 2022, published 2024).

The test deals with T1, hNPY1R (Homo sapiens, UniProt P25929).
T1 construct: SK-N-MC cells endogenously expressing the NPY1R receptor; endogenous in cells; host or cells: SK-N-MC cells (crude membrane fractions)
T1 sequence (P25929 1-384): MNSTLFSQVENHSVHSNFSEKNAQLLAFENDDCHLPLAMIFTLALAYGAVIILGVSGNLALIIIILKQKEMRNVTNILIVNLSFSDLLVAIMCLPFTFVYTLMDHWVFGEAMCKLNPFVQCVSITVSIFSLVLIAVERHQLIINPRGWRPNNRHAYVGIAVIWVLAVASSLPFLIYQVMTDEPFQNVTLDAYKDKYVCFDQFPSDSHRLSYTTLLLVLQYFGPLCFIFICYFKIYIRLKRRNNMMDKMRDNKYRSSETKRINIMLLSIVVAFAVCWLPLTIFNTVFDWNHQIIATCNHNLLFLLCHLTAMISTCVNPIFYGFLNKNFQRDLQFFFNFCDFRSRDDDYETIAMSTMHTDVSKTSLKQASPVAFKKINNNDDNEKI
Description: NPY1R binding assay: SK-N-MC membranes, [125I]-Peptide YY (human) competition.

[1] abbreviates: data obtained after 120 minutes at rt, SK-N-MC membranes, [125I]-Peptide YY, read-out: hNPY.R binding Ki* ††.
The mark [2] stands for this setting: data obtained after 60 minutes at 37° C., SK-N-MC membranes, [125I]-Peptide YY 0.05 nM, read-out: hNPY1R binding Ki* †.

The term Ki denotes the equilibrium dissociation constant of an inhibitor or competing ligand from its target.

Read-outs that look alike come from different tables or passages of the source.

Take `CCNC(=O)/N=C(/N)NCCC[C@@H](NC(=O)C(c1ccccc1)c1cccc(OCCCCNC(=O)[C@@H](Cc2ccc(-c3ccccc3)cc2)NC(=O)[C@@H](CN)NC(=O)CN2CCN(CC(=O)O)CCN(CC(=O)O)CCN(CC(=O)O)CC2)c1)C(=O)NCc1ccc(O)cc1` (single isomer, unassigned) [Compound 148A]: the Ki under setting [1] is < 10 nM.
Regarding `CCC(=O)NCCNC(=O)/N=C(/N)NCCC[C@@H](NC(=O)C(c1ccccc1)c1cccc(OCCCCNc2c(NCCNC(=O)[C@@H](CN)NC(=O)CN3CCN(CC(=O)O)CCN(CC(=O)O)CCN(CC(=O)O)CC3)c(=O)c2=O)c1)C(=O)NCc1ccc(O)cc1` (stereo in doubt) [Compound 115B-In, Indium (III) 2,2′,2″-(10-(2-(((R)-3-amino-1-((2-((2-((4-(3-((R,Z)-9-amino-4-((4-hydroxybenzyl)carbamoyl)-2,11,16-trioxo-1-phenyl-3,8,10,12,15-pentaazaoctadec-9-en-1-yl)phenoxy)butyl)amino)-3,4-dioxocyclobut-1-en-1-yl)amino)ethyl)amino)-1-oxopropan-2-yl)amino)-2-oxoethyl)-1,4,7,10-tetraaza-cyclododecane-1,4,7-triyl)triacetate], the Ki under setting [1] is < 10 nM.
For the compound `CCC(=O)NCCNC(=O)/N=C(/N)NCCC[C@@H](NC(=O)C(c1ccccc1)c1cccc(OCCCCNC(=O)CNC(=O)[C@@H](CC(N)=O)NC(=O)CN2CCN(CC(=O)O)CCN(CC(=O)O)CCN(CC(=O)O)CC2)c1)C(=O)NCc1ccc(O)cc1` (single isomer, unassigned) [Compound 112A], the inhibition constant Ki under setting [2] lay within 10 to 100 nM.
As to `CCC(=O)NCCNC(=O)/N=C(/N)NCCC[C@@H](NC(=O)C(c1ccccc1)c1cccc(OCCCCNC(=O)[C@H](N)CCCCNC(=O)CN2CCN(CC(=O)O)CCN(CC(=O)O)CCN(CC(=O)O)CC2)c1)C(=O)NCc1ccc(O)cc1` (single isomer, unassigned) [Compound 109A], the Ki under setting [2] was < 10 nM.
Regarding `CCC(=O)NCCNC(=O)/N=C(/N)NCCC[C@@H](NC(=O)C(c1ccccc1)c1ccc(NCCCNC(=O)[C@H](N)CCC(=O)NCCN(C)CCNC(=O)CN2CCN(CC(=O)O)CCN(CC(=O)O)CCN(CC(=O)O)CC2)cc1)C(=O)NCc1ccc(O)cc1` (single isomer, unassigned) [Compound 145A], the Ki under setting [1] was < 10 nM.
For the compound `CCC(=O)NCCNC(=O)/N=C(/N)NCCC[C@@H](NC(=O)C(c1ccccc1)c1cccc(OCCCCNC(=O)NOCCNC(=O)CN2CCN(CC(=O)O)CCN(CC(=O)O)CCN(CC(=O)O)CC2)c1)C(=O)NCc1c(F)cc(O)cc1F` (single isomer, unassigned) [Compound 163A], the Ki under setting [1] is < 10 nM.
With `CCC(=O)NCCNC(=O)/N=C(/N)NCCC[C@@H](NC(=O)C(c1ccccc1)c1ccc(NCCCNc2c(NCCNC(=O)CN3CCN(CC(=O)O)CCN(CC(=O)O)CCN(CC(=O)O)CC3)c(=O)c2=O)cc1)C(=O)NCc1ccc(O)cc1` (single isomer, unassigned) [Compound 124A], the Ki under setting [2] is 10 to 100 nM and the Ki under setting [1] was < 10 nM.
Turning to `CCC(=O)NCCNC(=O)/N=C(/N)NCCC[C@@H](NC(=O)C(c1ccccc1)c1cccc(OCCCCNC(=O)CNC(=O)[C@@H](CC(N)=O)NC(=O)CN2CCN(CC(=O)O)CCN(CC(=O)O)CCN(CC(=O)O)CC2)c1)C(=O)NCc1ccc(O)cc1` (single isomer, unassigned) [Compound 112B], the Ki under setting [2] is < 10 nM.
In the case of `N=C(N)NCCC[C@@H](NC(=O)C(c1ccccc1)c1cccc(OCCOCCOCCOCCOCCNC(=O)CN2CCN(CC(=O)O)CCN(CC(=O)O)CCN(CC(=O)O)CC2)c1)C(=O)NCc1ccc(CNC(N)=O)cc1` (stereo partly drawn) [Compound 113A, 2,2′,2″-(10-(17-(3-(2-(((R)-5-guanidino-1-oxo-1-((4-(ureidomethyl)benzyl)amino)pentan-2-yl)amino)-2-oxo-1-phenylethyl)phenoxy)-2-oxo-6,9,12,15-tetraoxa-3-azaheptadecyl)-1,4,7,10-tetraazacyclododecane-1,4,7-triyl)triacetic acid—2,2,2-trifluoroacetic acid (1/1)], the inhibitory constant (Ki) under setting [2] was > 100 nM.
As for `CCC(=O)NCCNC(=O)/N=C(/N)NCCC[C@@H](NC(=O)C(c1ccccc1)c1cccc(OCCCCNC(=O)[C@H](CS(=O)(=O)O)NC(=O)CN2CCN(CC(=O)O)CCN(CC(=O)O)CCN(CC(=O)O)CC2)c1)C(=O)NCc1ccc(O)cc1` (single isomer, unassigned) [Compound 107B], under setting [2], the Ki was in the range of 10 to 100 nM.
As for `CCC(=O)NCCNC(=O)/N=C(/N)NCCC[C@@H](NC(=O)C(c1ccccc1)c1ccc(NCCCNC(=O)[C@H](N)CCCCNC(=O)CN2CCN(CC(=O)O)CCN(CC(=O)O)CCN(CC(=O)O)CC2)cc1)C(=O)NCc1ccc(O)cc1` (single isomer, unassigned) [Compound 132A], under setting [1], the inhibition constant (Ki) was < 10 nM.
The same measure, in the same setting: under `CCC(=O)NCCNC(=O)/N=C(/N)NCCC[C@@H](NC(=O)C(c1ccccc1)c1cccc(OCCCCNC(=O)[C@@H](CCCNC(=N)N)NC(=O)CCNC(=O)CN2CCN(CC(=O)O)CCN(CC(=O)O)CCN(CC(=O)O)CC2)c1)C(=O)NCc1ccc(O)cc1` (single isomer, unassigned) [Compound 141A] stands < 10 nM.
Turning to `CCC(=O)NCCNC(=O)/N=C(/N)NCCC[C@@H](NC(=O)C(c1ccccc1)c1ccc(NCCCNC(=O)[C@H](N)CCCNC(=O)CN2CCC(NC(=O)CN3CCN(CC(=O)O)CCN(CC(=O)O)CCN(CC(=O)O)CC3)CC2)cc1)C(=O)NCc1ccc(O)cc1` (single isomer, unassigned) [Compound 146B], the inhibition constant (Ki) under setting [1] is < 10 nM.
Regarding `CCC(=O)NCCNC(=O)/N=C(/N)NCCC[C@@H](NC(=O)C(c1ccccc1)c1cccc(OCCCCNC(=O)[C@H](CS(=O)(=O)O)NC(=O)CN2CCN(CC(=O)O)CCN(CC(=O)O)CCN(CC(=O)O)CC2)c1)C(=O)NCc1ccc(O)cc1` (single isomer, unassigned) [Compound 107A], the Ki under setting [2] fell in the range of 10 to 100 nM.
In the case of `CCC(=O)NCCNC(=O)/N=C(/N)NCCC[C@@H](NC(=O)C(c1ccccc1)c1cccc(OCCCCNC(=O)c2ccc(CNC(=O)CN3CCN(CC(=O)O)CCN(CC(=O)O)CCN(CC(=O)O)CC3)cc2)c1)C(=O)NCc1ccc(O)cc1` (stereo partly drawn) [Compound 123, 2,2′,2″-(10-(2-((4-((4-(3-((4R,Z)-9-amino-4-((4-hydroxybenzyl)carbamoyl)-2,11,16-trioxo-1-phenyl-3,8,10,12,15-pentaazaoctadec-9-en-1-yl)phenoxy)butyl)carbamoyl)benzyl)amino)-2-oxoethyl)-1,4,7,10-tetraazacyclododecane-1,4,7-triyl)triacetic acid], under setting [1], the inhibitory constant (Ki) is < 10 nM.
As for `CCC(=O)NCCNC(=O)/N=C(/N)NCCC[C@@H](NC(=O)C(c1ccccc1)c1cccc(OCCCCNc2c(NCCONC(=O)CN3CCN(CC(=O)O)CCN(CC(=O)O)CCN(CC(=O)O)CC3)c(=O)c2=O)c1)C(=O)NCc1c(F)cc(O)cc1F` (single isomer, unassigned) [Compound 169], under setting [1], the Ki was < 10 nM.
For the compound `CCC(=O)NCCNC(=O)/N=C(/N)NCCC[C@@H](NC(=O)C(c1ccccc1)c1cccc(OCCOCCOCCOCCOCCNC(=O)CN2CCN(CC(=O)O)CCN(CC(=O)O)CCN(CC(=O)O)CC2)c1)C(=O)NCc1ccc(CNC(N)=O)cc1` (single isomer, unassigned) [Compound 114A], under setting [2], the inhibition constant (Ki) lay within 10 to 100 nM.
As to `CCC(=O)NCCNC(=O)/N=C(/N)NCCC[C@@H](NC(=O)C(c1ccccc1)c1cccc(OCCCCNC(=O)CCNC(=O)CN2CCN(CC(=O)O)CCN(CC(=O)O)CCN(CC(=O)O)CC2)c1)C(=O)NCc1c(F)cc(O)cc1F` (single isomer, unassigned) [Compound 162B], under setting [1], the inhibition constant (Ki) is < 10 nM.
Turning to `CCC(=O)NCCNC(=O)/N=C(/N)NCCC[C@@H](NC(=O)C(c1ccccc1)c1ccc(NCCCNC(=O)[C@H](N)CCCNC(=O)CN2CCC(NC(=O)CN3CCN(CC(=O)O)CCN(CC(=O)O)CCN(CC(=O)O)CC3)CC2)cc1)C(=O)NCc1ccc(O)cc1` (single isomer, unassigned) [Compound 146A], the Ki under setting [1] is < 10 nM.
`CCC(=O)NCCNC(=O)/N=C(/N)NCCC[C@@H](NC(=O)C(c1ccccc1)c1cccc(OCCCCNc2c(NCCNC(=O)CN3CCN(CC(=O)O)CCN(CC(=O)O)CCN(CC(=O)O)CC3)c(=O)c2=O)c1)C(=O)NCc1ccc(O)cc1` (single isomer, unassigned) [Compound 111B]: the Ki under setting [2] was < 10 nM.
Take `CCC(=O)NCCNC(=O)/N=C(/N)NCCC[C@@H](NC(=O)C(c1ccccc1)c1cccc(OCCCCNC(=O)CCCCCNC(=O)CN2CCN(CC(=O)O)CCN(CC(=O)O)CCN(CC(=O)O)CC2)c1)C(=O)NCc1ccc(O)cc1` (single isomer, unassigned) [Compound 140A]: the Ki under setting [1] is < 10 nM.
As to `CCC(=O)NCCNC(=O)/N=C(/N)NCCC[C@@H](NC(=O)C(c1ccccc1)c1ccc(OCCCNc2c(NCCNC(=O)CN3CCN(CC(=O)O)CCN(CC(=O)O)CCN(CC(=O)O)CC3)c(=O)c2=O)cc1)C(=O)NCc1ccc(O)cc1` (single isomer, unassigned) [Compound 136A], for the setting “read-out: hNPY.R binding Ki* ††”, the inhibition constant Ki is < 10 nM.
Regarding `CCC(=O)NCCNC(=O)/N=C(/N)NCCC[C@@H](NC(=O)C(c1ccccc1)c1ccc(NCCCNC(=O)c2ccc(C(=O)NCCCCNC(=O)CN3CCN(CC(=O)O)CCN(CC(=O)O)CCN(CC(=O)O)CC3)cc2)cc1)C(=O)NCc1ccc(O)cc1` (stereo partly drawn) [Compound 157, 2,2′,2″-(10-(2-((4-(4-((3-((4-((4R,Z)-9-amino-4-((4-hydroxybenzyl)carbamoyl)-2,11,16-trioxo-1-phenyl-3,8,10,12,15-pentaazaoctadec-9-en-1-yl)phenyl)amino)propyl)carbamoyl)benzamido)butyl)amino)-2-oxoethyl)-1,4,7,10-tetraazacyclododecane-1,4,7-triyl)triacetic acid], the Ki under setting [1] was < 10 nM.
